Earlier results, collected in US7994166B2, “Pyrrolidinone benzenesulfonamide derivatives as modulators of ion channels for the treatment of pain” (Vertex Pharmaceuticals Incorporated, priority 2007, dated 2011).

Molecular target: NaV1.8 (Homo sapiens, UniProt Q9Y5Y9)
Settings: read-out: TTX IC50

Chain of NaV1.8 (Q9Y5Y9 whole entry, looked up): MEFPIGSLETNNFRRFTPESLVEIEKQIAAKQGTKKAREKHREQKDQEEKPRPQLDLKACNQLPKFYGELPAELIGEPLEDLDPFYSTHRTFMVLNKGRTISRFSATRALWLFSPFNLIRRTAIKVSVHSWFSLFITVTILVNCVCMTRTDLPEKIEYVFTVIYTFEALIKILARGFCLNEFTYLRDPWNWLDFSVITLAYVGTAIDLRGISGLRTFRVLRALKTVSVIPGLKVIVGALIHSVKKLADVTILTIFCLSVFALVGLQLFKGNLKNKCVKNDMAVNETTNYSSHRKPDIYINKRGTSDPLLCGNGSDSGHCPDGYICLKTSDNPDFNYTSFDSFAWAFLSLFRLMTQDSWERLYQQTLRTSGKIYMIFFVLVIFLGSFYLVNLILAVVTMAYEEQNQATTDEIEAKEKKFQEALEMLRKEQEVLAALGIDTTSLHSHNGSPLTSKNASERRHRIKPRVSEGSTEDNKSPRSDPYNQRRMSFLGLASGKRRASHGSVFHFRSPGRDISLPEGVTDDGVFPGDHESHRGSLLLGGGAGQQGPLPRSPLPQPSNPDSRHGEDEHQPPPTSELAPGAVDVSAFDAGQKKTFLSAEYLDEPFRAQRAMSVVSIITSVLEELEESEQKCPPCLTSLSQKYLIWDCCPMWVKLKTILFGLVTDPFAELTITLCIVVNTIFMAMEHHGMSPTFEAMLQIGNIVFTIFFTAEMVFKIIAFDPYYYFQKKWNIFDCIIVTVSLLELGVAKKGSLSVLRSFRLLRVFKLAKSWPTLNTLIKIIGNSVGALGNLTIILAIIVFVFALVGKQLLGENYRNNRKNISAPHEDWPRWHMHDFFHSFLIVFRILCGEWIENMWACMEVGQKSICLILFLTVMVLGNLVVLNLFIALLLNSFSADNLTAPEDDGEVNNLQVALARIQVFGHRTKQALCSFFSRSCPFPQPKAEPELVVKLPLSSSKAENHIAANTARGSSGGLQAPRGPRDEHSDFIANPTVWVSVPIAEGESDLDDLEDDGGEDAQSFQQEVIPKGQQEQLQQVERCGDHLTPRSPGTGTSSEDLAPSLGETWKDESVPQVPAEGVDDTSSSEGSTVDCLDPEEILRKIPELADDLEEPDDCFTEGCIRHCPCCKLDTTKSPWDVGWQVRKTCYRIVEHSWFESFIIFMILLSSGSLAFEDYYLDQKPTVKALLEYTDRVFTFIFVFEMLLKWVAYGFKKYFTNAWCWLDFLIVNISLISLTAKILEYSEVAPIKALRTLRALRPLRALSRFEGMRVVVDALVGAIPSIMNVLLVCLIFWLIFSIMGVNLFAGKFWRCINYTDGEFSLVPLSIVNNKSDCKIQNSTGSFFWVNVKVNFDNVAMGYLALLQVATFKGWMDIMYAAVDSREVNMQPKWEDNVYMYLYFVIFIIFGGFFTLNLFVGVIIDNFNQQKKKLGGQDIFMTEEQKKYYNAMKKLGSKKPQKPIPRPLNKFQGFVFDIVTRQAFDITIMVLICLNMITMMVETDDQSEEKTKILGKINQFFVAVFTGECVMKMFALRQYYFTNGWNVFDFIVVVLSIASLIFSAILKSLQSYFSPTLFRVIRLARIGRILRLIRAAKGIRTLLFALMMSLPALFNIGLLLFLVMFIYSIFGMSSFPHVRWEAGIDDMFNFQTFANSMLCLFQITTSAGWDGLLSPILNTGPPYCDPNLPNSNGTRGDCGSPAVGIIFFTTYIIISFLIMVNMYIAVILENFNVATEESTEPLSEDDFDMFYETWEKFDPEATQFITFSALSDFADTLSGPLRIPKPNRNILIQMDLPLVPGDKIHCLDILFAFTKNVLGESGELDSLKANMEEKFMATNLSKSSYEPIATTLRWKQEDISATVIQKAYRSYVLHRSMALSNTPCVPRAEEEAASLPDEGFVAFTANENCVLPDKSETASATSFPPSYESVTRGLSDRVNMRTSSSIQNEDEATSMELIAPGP

## NC1=N[C@H](O)[C@H]2[C@H]3O[C@]4(O)O[C@@H]([C@@H](O)[C@@]2(N1)[C@@H]4O)[C@]3(O)CO [TTX, tetrodotoxin]
  IC50: > 50 µM
